{"source": "patent US20090191293A1", "about": "“Composition for enhancing immunity and reducing inflammation related to infections” (IOMEDI DEVELOPMENT INTERNATIONAL, SRL, priority 2007, published 2009)", "origin": "cited, not measured here", "key": {"[1]": {"test_system": "NF-κB dependent signaling pathway", "conditions": "lipopolysaccharide-induced inflammation"}, "[2]": {"test_system": "arachidonic acid inflammatory reactions"}, "[3]": {"test_system": "LPS-Stimulated Monocytes/Macrophages"}, "[4]": {"test_system": "NF-κB", "conditions": "treatment of mice"}, "[5]": {"test_system": "T cell"}, "[6]": {"test_system": "intercellular adhesion molecule-1", "conditions": "activated by TNF-α"}, "[7]": {"test_system": "nuclear factor kappa B (NF-κB)", "conditions": "HL-60-derived neutrophilic cells"}, "[8]": {"conditions": "daily supplementation, amounts greater than 100 mg"}}}
{"smiles": "OC[C@H]1O[C@@H](Oc2cc3c(O)cc(O)cc3[o+]c2-c2ccc(O)c(O)c2)[C@H](O)[C@@H](O)[C@@H]1O", "note": "[Example C3G, cyanidin-3-glucoside]", "values": [{"measurement": "NF-κB dependent signaling pathway", "setting": "[1]", "result": "inhibit the NF-κB dependent signaling pathway"}]}
{"smiles": "Oc1cc(O)c2c(c1)O[C@H](c1ccc(O)c(O)c1)[C@H](O)[C@H]2c1c(O)cc(O)c2c1O[C@H](c1ccc(O)c(O)c1)[C@H](O)C2", "note": "[Procyanidin B(2)]", "values": [{"measurement": "arachidonic acid inflammatory reactions", "setting": "[2]", "result": "strongly inhibit arachidonic acid inflammatory reactions"}]}
{"smiles": "CC1=C(/C=C/C(C)=C/C=C/C(C)=C/C(=O)O)C(C)(C)CCC1", "note": "[all trans-retinoic acid (atRA), all trans-retinoic acid]", "values": [{"measurement": "production of IL-10", "setting": "[3]", "result": "enhancing the production of the immune modulating cytokine, IL-10"}, {"measurement": "production of pro-inflammatory cytokines (IL-12 and TNF-α)", "setting": "[3]", "result": "lower the production of pro-inflammatory cytokines"}]}
{"smiles": "C=CCS[S+]([O-])CC=C", "note": "(stereo not drawn) [allicin]", "values": [{"measurement": "NF-κB binding to the nucleus", "setting": "[4]", "result": "significantly reduced NF-κB binding to the nucleus"}, {"measurement": "TNF-α mediated T cell adhesion to extracellular matrix components and endothelial cells", "setting": "[5]", "result": "inhibition of TNF-α mediated T cell adhesion"}]}
{"smiles": "C=C1CC[C@@H]2[C@](C)(CO)[C@H](O)CC[C@@]2(C)[C@@H]1C/C=C1/C(=O)OC[C@H]1O", "note": "[andrographolide]", "values": [{"measurement": "expression of intercellular adhesion molecule-1", "setting": "[6]", "result": "inhibit expression of intercellular adhesion molecule-1"}, {"measurement": "binding of NF-κB to the DNA", "setting": "[7]", "result": "specifically affects the binding of nuclear factor kappa B (NF-κB) to the DNA"}]}
{"smiles": "O=C1O[C@H]([C@@H](O)CO)C(O)=C1O", "note": "[ascorbic acid, L-ascorbic acid]", "values": [{"measurement": "incidence, severity and integrated morbidity of the common cold", "setting": "[8]", "result": "lowers the incidence, severity and integrated morbidity of the common cold"}]}
